Entries after “also recorded” stand apart in the source; their conditions may differ. Peptide text beside a SMILES is read from it.
Key:
Assay type in all cases: in vivo
[1] = system: adult male C57BL/6 male mice; experiment: Novel object recognition test (NOR), discrimination index
Description: The discrimination index is calculated using the following formula: (time spent exploring novel object−time spent exploring familiar object)/(total time spent in exploring both the novel and familiar objects).
Novel Object recognition Test (“NOR”) testing in mice was adapted from (Hashimoto K, Fujita Y, Shimizu E, Iyo M (2005). Phencyclidine-induced cognitive deficits in mice are improved by subsequent subchronic administration of clozapine, but not haloperidol. European journal of pharmacology 519(1-2): 114-117). See also, e.g., Rajagopal, et al., Current Pharmaceutical Design 2014, 20, 1. The NOR box is an open box made out of Plexiglas (52 cm L; 52 cm W; 31 cm H). The dimensions of the box we used for mice was identical to the one used for rats. The box was positioned approximately 30 cm above the floor. The walls of the box have white background, as opposed to the black background in the rat NOR studies. […] Three days prior to testing, mice were habituated to the empty NOR arena for an hour. The NOR test in mice is similar to that previously employed to study rat NOR except that the acquisition and retention trials were 10 min in duration, followed by an intertrial interval (ITI) of 24 hours during which the mice were returned to their home cages, whereas in rats, the acquisition and retention trials were three min in duration separated by a one min ITI (Horiguchi M, Meltzer HY (2012). The role of 5-HT1A receptors in phencyclidine (PCP)-induced novel object recognition (NOR) deficit in rats. Psychopharmacology 221(2): 205-215). We compared 3, 5, and 10 min times for acquisition and retention trial explorations and found 10 minutes to be optimal for reliable data collection. Both trials were recorded for blind scoring later on.
All data are expressed as mean±S.E.M. Exploration data were analysed by a two-way analysis of variance (ANOVA). This detected the main effect of drug treatment, the main effect of task, and the interaction between drug treatment and object exploration. When a significant effect was found, further analysis by a post hoc Student's t-test was performed to compare the times spent exploring the novel and familiar object. The primary endpoint was the discrimination index (DI). The DI (novel-familiar/novel+familiar) data were analysed using one-way ANOVA followed by the Bonferroni test when a significant effect was detected by the ANOVA.

[2] = system: 2-3 month old male Sprague Dawley rats; experiment: Stereotypy behaviour (circling and head weaving) in the open field
Description: Vehicle treated animals received saline vehicle injections instead of GLYX-13 and ketamine injections. Animals were placed into the open field immediately after the final dose, and behaviour was analysed for 20 min. N=8-12.

somatosensory cortex = experiment: Attenuation in somatosensory cortex with GLYX-13 pre-treatment followed by ketamine (FIG. 4)

`CNC1(c2ccccc2Cl)CCCCC1=O` (stereo not shown) [ketamine, reference compound] was tested, and the “Discrimination index (DI) in novel object recognition, effect of acute ketamine” value ([1]; ketamine 10 mg/kg sc, tested 20 min later, p<0.0001 vs vehicle group) was “significant decrease in DI compared with the vehicle group”, the “Discrimination index (DI) in novel object recognition, effect of chronic ketamine” value ([1]; ketamine 30 mg/kg IP twice daily for 7 days, then saline vehicle 1 hr before testing, p<0.001 vs vehicle group) was “significant decrease in DI compared with the vehicle group” and the “Number of stereotypy behaviour (circling and head weaving), effect of ketamine” value ([2]; ketamine 10 mg/kg iv, open field, 20 min) was “induced stereotypy”.
With `c1ccc(C2(N3CCCCC3)CCCCC2)cc1` [PCP, phencyclidine, reference compound] the “Discrimination index (DI) in novel object recognition, effect of chronic PCP” value ([1]; PCP 10 mg/kg IP twice daily for 7 days, then saline vehicle 1 hr before testing, p<0.001 vs vehicle group) was “significant decrease in DI compared with the vehicle group”.
For `CC(O)C(N)C(=O)N1CCCC1C(=O)N1CCCC1C(=O)NC(C(N)=O)C(C)O` (stereo not shown) [GLYX-13] (H-TPPT-NH2; configuration not given here), the “Discrimination index (DI) in novel object recognition, reversal of acute ketamine-induced impairment” value ([1]; GLYX-13 3 mg/kg iv 30 min before ketamine 10 mg/kg sc, tested 20 min later, p<0.01 vs ketamine group) was “reverses acute ketamine (10 mg/kg sc) induced impairment in novel object recognition; also recorded: significant reversal in DI compared with ketamine group”, the “Discrimination index (DI) in novel object recognition, reversal of chronic ketamine-induced impairment” value ([1]; mice pre-treated with ketamine 30 mg/kg IP twice daily for 7 days, GLYX-13 1 mg/kg IV 1 hr before testing, p<0.001 vs ketamine group) was “reverses chronic ketamine-induced impairment in novel object recognition; also recorded: significant reversal in DI compared with ketamine group” and the “Discrimination index (DI) in novel object recognition, reversal of chronic PCP-induced impairment” value ([1]; mice pretreated with PCP 10 mg/kg IP twice daily for 7 days, GLYX-13 1 mg/kg IV 1 hr before testing, p<0.001 vs PCP group) was “reverses chronic phencyclidine-induced impairment in novel object recognition; also recorded: significant reversal in DI compared with PCP group”. For the same compound, the “Attenuation in somatosensory cortex” value (somatosensory cortex; pre-treatment with 3 mpk GLYX-13 followed by ketamine) was “significant attenuation”, the “Attenuation in somatosensory cortex” value (somatosensory cortex; pre-treatment with 30 mpk GLYX-13 followed by ketamine) was “significant attenuation” and the “Number of stereotypy behaviour (circling and head weaving), inhibition of ketamine-induced stereotypy” value ([2]; GLYX-13 3 mg/kg iv 30 min before ketamine 10 mg/kg iv, behaviour analysed for 20 min) was “inhibits ketamine (10 mg/kg iv) induced stereotypy”.

Reference: patent US20170072005A1, “COMBINATIONS OF NMDAR MODULATING COMPOUNDS” (NORTHWESTERN UNIVERSITY, priority 2014, published 2017)
